# Results as given in patent US20260207551A1, “PHOSPHOGLICERATE DEHYDROGENASE INHIBITORS FOR THE TREATMENT OF FIBROSIS” (CHIESI FARMACEUTICI S.P.A., priority 2022, published 2026).
# Tests used:
# αSMA = test: Phenotypic assay: high content aSMA staining in NHLF cells; type: cell-based, Human; conditions: NHLF, 72 h incubation
# Procedure: NHLF cells (Lonza #CC2512) were seeded as 2000 cells/well in 384-well plates in MEM medium w/o serine and glycine (Sigma #M2279)+1% pen/strep+5 mM L-glutamine +10% FBS and incubated overnight at 37° C., 5% CO2.
# The next day, cells were washed with PBS and starvation MEM medium w/o serine and glycine (0% FBS) was added and cells were incubated overnight at 37° C., 5% CO2. The day after, cells were pre-incubated with compounds or vehicle (0.3% DMSO) for 1 h. Compounds were tested at 9 consecutive 3-fold dilutions starting from 30 μM. Each compound was tested in duplicate. Cells were further incubated for 72 h at 37° C., 5% CO2, 95% humidity. After 72 h of incubation, αSMA expression was quantified using immunostaining: • Fixation in 4% paraformaldehyde, • Blocking with 3% BSA, 2% FBS, 0.2% Triton-X in PBS, • Primary ab. anti-αSMA (AbCam #ab7817) diluted 500× in blocking buffer • Anti-mouse secondary ab. AF488 (ThermoFisher #A11029) • % of αSMA positive cells was determined by High Content Imaging (Molecular Device), data analysis was performed using MetaXpress software (Molecular Devices) and % of αSMA positive was further used to calculate % of inhibition for tested compounds. Total cell number was determined by Hoechst staining and % of viability over TGFβ stimulated controls was calculated.
# [1] = system: bleomycin-induced pulmonary fibrosis; test: Bleomycin-induced pulmonary fibrosis in male mice (Example 6); type: in vivo, Male C57BL6/J mice
# Procedure: The effect of Compound 19a was evaluated in a murine model (C57BL/6J mouse strain) in which fibrosis was induced by a double oropharyngeal (OA) instillation of bleomycin. The Compound 19a was administered under therapeutic regimen for 14 days, starting the treatments at day 7 from the first instillation of Bleomycin OA up to the day 21, considered the endpoint for this model.
# All mice were maintained under pathogen-free conditions and had free access to food and water.
# Lung injury was induced by double OA instillation of bleomycin hydrochloride (BLM, BAXTER, Deerfield, IL, USA) at day 0 and day 4 at the dose of 0.03 U/mouse in […] of saline solution (NaCl 0.9%). Control animals received double OA instillation of […] of saline solution.
# The Compound 19a was orally administered twice daily at the three doses of 3, 30 and 100 mg/Kg 10 mL/Kg, using as vehicle for dissolution the 0.5% Tween 80, 0.5% Methylcellulose in H2O.
# On day 21, the respiratory system mechanics were measured using the FlexiVent System (SCIREQ Inc., Montreal Qc, Canada) (Vanoirbeek et al., 2010).
# Briefly, mice were anesthetized by intraperitoneal injection of ketamine (Anesketin®, Dechra Inc., Handelsweg, NL) and xylazine (Xilagesic®, Calier Inc., Barcelona, ES) solution (100 mg/Kg and 10 mg/Kg, respectively). Once anesthesia was achieved, to analyze forced vital capacity (FVC), anesthetized mice were tracheotomized using an 18-gauge metal cannula, connected via an endotracheal cannula to the FlexiVent and ventilated at a respiratory rate of 150 breaths/min and tidal volume of 10 mL/Kg against a positive end-expiratory pressure of 3 cm H2O to achieve a mean lung volume close to that during spontaneous breathing. To prevent spontaneous breathing mice also received pancuronium bromide at 1 mg/Kg intraperitoneally. FlexiVent software version 8.1 was used to perform the perturbations.
# Immediately after the in-life evaluation, plasma and bronchoalveolar lavage fluid (BALF) samples were collected.
# First, blood was collected by cardiac puncture, and plasma was obtained after centrifugation of blood at 2000×g and 4° C. for 10 minutes.
# Subsequently, the lungs were gently rinsed three times using a tracheal cannula with 0.6 mL of clear BAL solution. The obtained BALF was centrifuged at 1000×g and 4° C. for 10 minutes. The cell-free supernatant was used for biomarkers quantitative determination.
# The following biomarkers were determined in BALF and plasma samples by commercially available ELISA kits: Collagen I (evaluated in BALF), an index of collagen accumulation; matrix metallopeptidase 7 (MMP-7, evaluated in BALF), indicator of aberrant fibrogenesis and ECM remodeling and surfactant protein D (SP-D, evaluated in PLASMA), marker of alveolar epithelial cell damage and dysfunction.
# Lastly, the entire lungs were resected, fixed with formalin and embedded in paraffin. Sections were stained with Masson's trichrome to assess the grade and severity of fibrosis and collagen deposition.
# synthesis of 13C3-serine = test: PK/PD model: in vivo [13C6] glucose tracing, inhibition of 13C3-serine synthesis; parameters: species or system mouse male (C57BL/6J); conditions: 1 h; for decrease of brain serine concentration: not statistically significant
# Procedure: As PHGDH catalyzes the rate-limiting step of glucose-derived serine synthesis, a pharmacokinetic/pharmacodynamic (PK/PD) experiment aimed to assess the inhibition of the synthesis of ^13C3-serine after oral administration of ^13C6-glucose was performed in mouse male (C57BL/6J).
# Animals were fasted overnight before treatment. Following 0.5 h from administration of either Compound 19 at dose of 300 mg/kg or vehicle (0.5% Tween 80, 0.5% Methylcellulose in H2O), ^13C6-glucose was administered by oral gavage (2 g/kg, Merck Life Science Srl). Blood, lung, and brain samples were collected at 1 h, 6.5 h and 24.5 h after treatment with Compound 19 or vehicle.
# The tissue concentration of ^13C3-serine was determined by a liquid chromatography-tandem mass spectrometry (LC/MS/MS) assay. GraphPad Prism (version 8.1.2) was used for drawing graphs and for statistical analysis. Plasma or tissue homogenate samples (tissues were homogenized with a water/acetonitrile 50/50 mixture) were extracted with 3 volumes of acetonitrile. Supernanatant was injected into HPLC system (Agilent 1260 Quaternary Pump equipped with an Agilent 1200 High Performance Autosampler SL; Agilent), using a Kinetex EVO C18 analytical column (100 A, 50×2.1 mm, 2.6 μm; Phenomenex) for the analysis of Compound 19 or an InfinityLab Poroshell 120 Hilic-Z (50×2.1 mm 2.7 μm; Agilent) for the analysis of ^13C3-serine. The mobile phases consisted of 0.1% formic acid in water (solvent A) and 0.1% formic acid in acetonitrile (solvent B); chromatographic separation was performed with gradient elution method (see conditions below): • Compound 19 (0.0-0.5 min, 10% B; 0.5-3.0 min, gradient to 90% B; 3.0-5.0 min. 90% B; 5.0-6.0 min, gradient to 10% B; 6.0-10.0 min, 10% B—flow rate: 0.4 mL/min). • S^13C3-serine (0.0-0.5 min, 95% B; 0.5-4.0 min, gradient to 60% B; 4.0-5.0 min, 60% B; 5.0-6.0 min, gradient to 95% B; 6.0-10.0 min, 95% B—flow rate: 0.4 mL/min).
# Mass spectrometric analysis was performed on a linear ion trap triple quadrupole mass spectrometer (4000 Q TRAP; AB SCIEX) equipped with a turbo spray ion source; mass spectrometer was operated in positive ion mode and quantification was achieved by multiple reaction monitoring (MRM) mode. Peak integration was performed using Analyst (version 1.6.2.). GraphPad Prism (version 8.1.2) was used for drawing graphs and for statistical analysis.
# After 0.5 h from administration of Compound 19a at dose of 3, 10, 30, 100 and 300 mg/kg po, Compound 19 at dose of 300 mg/kg po or vehicle po (0.5% Tween 80, 0.5% Methylcellulose in H2O), mice received ^13C6-glucose by oral gavage (2 g/kg, Merck Life Science Srl). […] Blood was withdrawn by cardiac puncture and collected in heparin tubes.
# Collagen I = test: Fibroblast to myofibroblast transition (FMT) in vitro assay: Collagen I detection; type: cell-based; conditions: Homo sapiens, NHLF, 72 h, read-out: Collagen-I pIC50 (converted)
# [2] = Compound 19a 100 mg/Kg bid, Nintedanib esylate 50 mg/Kg bid
smiles,measurement,setting,value
"CC(C)C(C(=O)O)c1ccc(C2(NC(=O)c3cc4c(Cl)c(Cl)ccc4n3C)CCOC2)cc1 (racemic) [Compound 19a, Diasteroisomer 2 of (±)-2-(4-(3-(4,5-Dichloro-1-methyl-1H-indole-2-carboxamido)tetrahydro-furan-3-yl)phenyl)-3-methylbutanoic acid]",aSMA pIC50,αSMA,6.6
same,fibrotic tissue quantification by automated analysis (FIG. 19B),[1]; 100 mg/Kg,effect comparable to Nintedanib
same,reduction of Collagen I in BALF,[1]; [2],52%
same,reduction of MMP-7 in BALF,[1]; [2],> 100%
same,reduction of SP-D levels in plasma,[1]; [2],74%
same,improvement of FVC decline,"[1]; Compound 19a 100 mg/kg bid, Nintedanib esylate 50 mg/Kg bid, vs BLM/vehicle",77%
same,reduction of Ashcroft score,"[1]; day 21, dose not stated",56%
same,decrease of brain serine concentration,synthesis of 13C3-serine; 100 mg/kg po,12%
same,decrease of brain serine concentration,synthesis of 13C3-serine; 300 mg/kg po,30%
same,ED80 (inhibition of labelled serine),"synthesis of 13C3-serine; plasma and lung, both tissues, po, estimated",around 30 mg/kg
same,IC50,Collagen I,126 nM
